Test system: HCV replicon
Assay: Replicon based assay of HCV replication inhibition (NPT ELISA)
Assay type: cell-based, Hepatitis C virus
Conditions: Hepatitis C virus, Huh-7, 72 h, Table III; Huh-7 HCV replicon-containing cells, three days; read-out: Activity
In short: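 NPT (neomycin phosphotransferase) content, proportional to replicon replication, quantified by capture ELISA on day four. Before that, replicon-bearing Huh-7 cells in G418-free screening medium were exposed three days at 37° C to compound, typically six doses from 10 to 0.03 micromolar, with equal DMSO across wells.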

Compound | EC50
CCCCCCCCOc1ccc(Nc2nc(-c3ccc4[nH]c(=O)oc4c3)cs2)cc1C(F)(F)F [compound 585, 6-(2-(3-(trifluoromethyl)-4-(octyloxy)phenylamino)thiazol-4-yl)benzo[d]oxazol-2(3H)-one] | < 1000 nM
CCCCCCCCOc1ccc(Nc2nc(-c3ccc(OCC(=O)O)cc3)c(C)s2)cc1C(F)(F)F [compound 586, 2-(4-(2-(3-(trifluoromethyl)-4-(octyloxy)phenylamino)-5-methylthiazol-4-yl)phenoxy)acetic acid] | < 1000 nM
CCCCCCCCOc1ccc(Nc2nc(-c3ccccn3)cs2)cc1C(F)(F)F [compound 587, N-(3-(trifluoromethyl)-4-(octyloxy)phenyl)-4-(pyridin-2-yl)thiazol-2-amine] | < 1000 nM
CCCCCCCCOc1ccc(Nc2nc(-c3ccc(-c4ccccn4)s3)cs2)cc1C(F)(F)F [compound 588, N-(3-(trifluoromethyl)-4-(octyloxy)phenyl)-4-(5-(pyridin-2-yl)thiophen-2-yl)thiazol-2-amine] | < 1000 nM
CCCCCCCCOc1ccc(Nc2nc(-c3cc4ccccc4o3)cs2)cc1C(F)(F)F [compound 589, 4-(benzofuran-2-yl)-N-(3-(trifluoromethyl)-4-(octyloxy)phenyl)thiazol-2-amine] | < 1000 nM
CCCCCCCCOc1ccc(Nc2nc(-c3sc(-c4cnccn4)nc3C)cs2)cc1C(F)(F)F [compound 590, N-(3-(trifluoromethyl)-4-(octyloxy)phenyl)-4-(4-methyl-2-(pyrazin-2-yl)thiazol-5-yl)thiazol-2-amine] | < 1000 nM
CCCCCCCCOc1ccc(Nc2nc(-c3ccc(Cl)cc3)cs2)cc1C(F)(F)F [compound 591, 4-(4-chlorophenyl)-N-(3-(trifluoromethyl)-4-(octyloxy)phenyl)thiazol-2-amine] | < 1000 nM
CCCCCOc1ccc(Nc2nc3c(s2)CCc2ccncc2-3)cc1C(F)(F)F [compound 592, N-(3-(trifluoromethyl)-4-(pentyloxy)phenyl)-4,5-dihydrothiazolo[5,4-h]isoquinolin-2-amine] | < 1000 nM
CCCCCCCCOc1ccc(Nc2nc3c(s2)CCc2ccncc2-3)cc1 [compound 593, 4,5-dihydro-N-(4-(octyloxy)phenyl)thiazolo[5,4-h]isoquinolin-2-amine] | < 1000 nM
CCCCCOc1ccc(Nc2nc3c(s2)CCc2ncccc2-3)cc1C(F)(F)F [compound 594] | < 1000 nM
CCCCCCCCOc1ccc(Nc2nc3c(s2)CCc2ncccc2-3)cc1 [compound 595, 4,5-dihydro-N-(4-(octyloxy)phenyl)thiazolo[4,5-f]quinolin-2-amine] | 1000 to 10000 nM
CCCCCCCCOc1ccc(Nc2nc(-c3cnccn3)cs2)cc1C(F)(F)F [compound 596, N-(3-(trifluoromethyl)-4-(octyloxy)phenyl)-4-(pyrazin-2-yl)thiazol-2-amine] | < 1000 nM
CCCC(CCC)Oc1ccc(Nc2nc(-c3cnccn3)cs2)cc1C(F)(F)F [compound 597, N-(3-(trifluoromethyl)-4-(heptan-4-yloxy)phenyl)-4-(pyrazin-2-yl)thiazol-2-amine] | < 1000 nM
CCCCCCCCOc1ccc(Nc2nc(-c3cnccn3)cs2)cc1 [compound 598, N-(4-(octyloxy)phenyl)-4-(pyrazin-2-yl)thiazol-2-amine] | < 1000 nM
CCCCCOc1ccc(Nc2nc(/C=C/c3ccc(F)c(F)c3)cs2)cc1C(F)(F)F [compound 599, 4-(3,4-difluorostyryl)-N-(3-(trifluoromethyl)-4-(pentyloxy)phenyl)thiazol-2-amine] | < 1000 nM
CCCCCOc1ccc(Nc2nc(/C=C/c3ccc(OC)cc3)cs2)cc1C(F)(F)F [compound 600, 4-(4-methoxystyryl)-N-(3-(trifluoromethyl)-4-(pentyloxy)phenyl)thiazol-2-amine] | < 1000 nM
CCCCCOc1ccc(Nc2nc(/C=C/c3ccc(Cl)cc3)cs2)cc1C(F)(F)F [compound 601, 4-(4-chlorostyryl)-N-(3-(trifluoromethyl)-4-(pentyloxy)phenyl)thiazol-2-amine] | < 1000 nM
